Patent US9833466B2, “Treatment of leukemia with histone deacetylase inhibitors” (Acetylon Pharmaceuticals Inc., priority 2014, dated 2017)

Legend:
[1] = test system: HDAC1, HDAC2, HDAC3 and HDAC6; test: HDAC selectivity of the inhibitor panel; format: biochemical; conditions: HDAC isoform(s) the inhibitor is selective for
Procedure: Compounds for testing are diluted in DMSO to 50 fold the final concentration and a ten point three fold dilution series is made. The compounds are diluted in assay buffer (50 mM HEPES, pH 7.4, 100 mM Kill, 0.001% Tween-20, 0.05% BASE, 20 μM TEC) to 6 fold their final concentration. The HDAC enzymes (purchased from BPS Biosciences) are diluted to 1.5 fold their final concentration in assay buffer. The dipeptide substrate and trypsin at 0.05 μM final concentration are diluted in assay buffer at 6 fold their final concentration. The final enzyme concentrations to use in these assays are 3.3 ng/ml (HDAC1), 0.2 ng/ml (HDAC2), 0.08 ng/ml (HDAC3) and 2 ng/ml (HDAC6). The final substrate concentrations to use are 16 μM (HDAC1), 10 μM (HDAC2), 17 μM (HDAC3) and 14 μM (HDAC6). Five μ1 of compound and 20 μl of enzyme are added to wells of a black, opaque 384 well plate in duplicate. Enzyme and compound are incubated together at room temperature for 10 min. Five μ1 of substrate is added to each well, the plate is shaken for 60 seconds and placed into a Victor 2 microliter plate reader. The development of fluorescence is monitored for 60 min. and the linear rate of the reaction is calculated. The IC50 is determined using Graph Pad Prism by a four parameter curve fit.
The following HDAC inhibitors were used to evaluate the relationship between HDAC selectivity and the viability of AML cell lines upon exposure to the HDAC inhibitor: […]

MV4-11 [2] = test: Cell cycle by flow cytometry (EdU, Far Red) in MV4-11; format: cell-based; conditions: single agent, 72 h
Procedure: (§1) The distribution of cells among G0/G1 phase, G2/M phase, S phase and subG1 phase was determined. […] The relative fraction of cells that were live, in early apoptosis, in late apoptosis, or dead was then determined.
(§2) FIG. 17. […] (A) Indicated AML cell lines were exposed to increasing concentrations of Compound J to confirm their sensitivity to HDAC1/2 inhibition. (B-D) MV4-11 cells were treated with indicated concentrations of compounds. (B) Surface levels of myeloid differentiation marker CD11b were determined by FACS at 72 h post-treatment. […] (C) Cell cycle was assessed by flow cytometry after incorporation of EdU and staining with Far Red at 72 h post-treatment. The distribution of cells among G0/G1 phase, G2/M phase, S phase and subG1 phase was determined. […] (D) Apoptosis was assessed by flow cytometry via measuring Annexin V binding and cellular permeability to propidium iodide at 96 h post-treatment. The relative fraction of cells that were live, in early apoptosis, in late apoptosis or dead was then determined.

Kasumi-1 = Kasumi-1 cell cycle by propidium iodide staining (sub-G1); format: cell-based; conditions: 72 hours, increasing concentrations
Procedure: HDAC inhibition causing AML cell death (apoptosis) was measured by staining the AML cells with propidium iodide after the cells were exposed to different concentrations of the HDAC inhibitors. Four distinct cell populations, G1, S, G2, and sub-G1, were separated and quantified based on their propidium iodide staining patterns. The sub-G1 cells are those dying or dead cells, and the percentage of this population was a reflection of the tested compound cytotoxicity.

MV4-11 [3] = test: Surface CD11b by FACS in MV4-11; format: cell-based; conditions: single agent, 72 h
Procedure: as §1
(§3) MV4-11 cells were treated with Compound E or with Compound A or with Compound B as single agent or in combination with azacitidine at indicated doses. FIGS. 12A, 12C, and 12E show surface levels of CD11b determined by FACS at 72 h post-treatment. FIGS. 12B, 12D, and 12F show assessment of apoptosis by FACS (as in, e.g., FIG. 9C) at 96 h post-treatment.
as §2

[4] = test system: HL-60, NB4, MV4-11, Kasumi-1, THP-1, and MOLM-13; test: Single agent activity on viability in AML cell lines; format: cell-based; conditions: 72 hours, six AML cell lines
Procedure: FIGS. 3A-D show the single agent activity on viability in AML cell lines. Briefly, each of the following cell lines: HL-60, THP-1, MV-4-11, Kasumi-1, NB4, and MOLM-13 were exposed to increasing concentrations of either Compound B (FIG. 3A), Compound A (FIG. 3B), Compound E (FIG. 3C), or azacitidine (FIG. 3D) to determine their response to drug treatment. […] The panel of cell lines was also treated with azacitidine to measure their sensitivity.
FIGS. 8A-F show the single agent activity on viability in AML cell lines. […] Viability was calculated as a percentage of control (DMSO treated cells). Growth inhibition curves were generated using GraphPad Prism 6.
FIG. 17. […] (B-D) MV4-11 cells were treated with indicated concentrations of compounds. (B) Surface levels of myeloid differentiation marker CD11b were determined by FACS at 72 h post-treatment. […] (C) Cell cycle was assessed by flow cytometry after incorporation of EdU and staining with Far Red at 72 h post-treatment. The distribution of cells among G0/G1 phase, G2/M phase, S phase and subG1 phase was determined. […] (D) Apoptosis was assessed by flow cytometry via measuring Annexin V binding and cellular permeability to propidium iodide at 96 h post-treatment. The relative fraction of cells that were live, in early apoptosis, in late apoptosis or dead was then determined.

MV4-11 [5] = test: Apoptosis by Annexin V / propidium iodide flow cytometry in MV4-11; format: cell-based; conditions: single agent, 96 h
Procedure: as §1, §3, §2

AML1/ETO fusion protein = AML1/ETO fusion protein Western blot in Kasumi-1 cells; format: cell-based; conditions: 24 hours
Procedure: One type of AML has a signature chromosome translocation t(8:21) and therefore expression of a unique fusion protein AML1/ETO. […] In this study, Kasumi-1 cells were exposed to different concentrations of the HDAC inhibitor Compound A, or another HDAC1/2/6 selective inhibitor Compound G (data not shown), for 24 hours. The whole cell lysates were separated by SDS-PAGE (SDS-polyacrylamide gel electrophoresis) and transferred to a membrane (Western blot). The AML1/ETO fusion protein was detected on the membrane using an AML1 specific antibody.

O=C(NO)c1cnc(NC2(c3ccccc3)CCN(C(=O)Nc3ccccc3)CC2)nc1 [Compound G, N-hydroxy-2-((4-phenyl-1-(phenylcarbamoyl)piperidin-4-yl)amino)pyrimidine-5-carboxamide]
Selectivity [1]: HDAC6 (1/2) | cell cycle arrest (MV4-11 [2]): induced cell cycle arrest | sub-G1 cells (dying or dead cells) (Kasumi-1): Increased amount of sub-G1 cells | percentage of CD11b positive cells (MV4-11 [3]): increased the percentage of CD11b positive cells | viability IC50 relative to HDAC selective range [4]: has some inhibitory effects on HDAC1/2 at their IC50 values | apoptosis relative to control cells (MV4-11 [5]): increase in apoptosis relative to control cells | amount of AML1/ETO fusion protein (AML1/ETO fusion protein): decrease the amount of this fusion protein in a concentration dependent manner
